Reference: US9732075B2, “Benzimidazole-proline derivatives” (IDORSIA PHARMACEUTICALS LTD, priority 2012, dated 2017)

Experiments:
human orexin-1 receptor = human orexin-1 receptor (Homo sapiens (Human), UniProt O43613); experiment: In vitro assay: intracellular calcium measurements (FLIPR), antagonistic activity; type: cell-based; settings: CHO cells expressing human orexin-1 receptor, orexin-A agonist, geometric mean, read-out: IC50 Ox1
Procedure: (§1) In Vitro Assay: Intracellular Calcium Measurements:
(§2) Chinese hamster ovary (CHO) cells expressing the human orexin-1 receptor and the human orexin-2 receptor, respectively, are grown in culture medium (Ham F-12 with L-Glutamine) containing 300 μg/ml G418, 100 U/ml penicillin, 100 μg/ml streptomycin and 10% heat inactivated fetal calf serum (FCS). The cells are seeded at 20,000 cells/well into 384-well black clear bottom sterile plates (Greiner). The seeded plates are incubated overnight at 37° C. in 5% CO2.
(§3) Human orexin-A as an agonist is prepared as 1 mM stock solution in MeOH: water (1:1), diluted in HBSS containing 0.1% bovine serum albumin (BSA), NaHCO3: 0.375 g/l and 20 mM HEPES for use in the assay at a final concentration of 3 nM.
(§4) Antagonists are prepared as 10 mM stock solution in DMSO, then diluted in 384-well plates using DMSO followed by a transfer of the dilutions into in HBSS containing 0.1% bovine serum albumin (BSA), NaHCO3: 0.375 g/l and 20 mM HEPES. On the day of the assay, 50 μl of staining buffer (HBSS containing 1% FCS, 20 mM HEPES, NaHCO3: 0.375 g/l, 5 mM probenecid (Sigma) and […] of the fluorescent calcium indicator fluo-4 AM (1 mM stock solution in DMSO, containing 10% pluronic) is added to each well. The 384-well cell-plates are incubated for 50 min at 37° C. in 5% CO2 followed by equilibration at RT for 30 min before measurement.
(§5) Within the Fluorescent Imaging Plate Reader (FLIPR Tetra, Molecular Devices), antagonists are added to the plate in a volume of 10 μl/well, incubated for 120 min and finally 10 μl/well of agonist is added. Fluorescence is measured for each well at 1 second intervals, and the height of each fluorescence peak is compared to the height of the fluorescence peak induced by an approximate EC70 (for example 5 nM) of orexin-A with vehicle in place of antagonist. The IC50 value (the concentration of compound needed to inhibit 50% of the agonistic response) is determined and may be normalized using the obtained IC50 value of a on-plate reference compound. Optimized conditions are achieved by adjustment of pipetting speed and cell splitting regime. The calculated IC50 values may fluctuate depending on the daily cellular assay performance. Fluctuations of this kind are known to those skilled in the art. Average IC50 values from several measurements are given as geometric mean values.

human orexin-2 receptor = human orexin-2 receptor (Homo sapiens (Human), UniProt O43614); experiment: as above; type: cell-based; settings: CHO cells expressing human orexin-2 receptor, orexin-A agonist, geometric mean, read-out: IC50 Ox2
Procedure: as §1, §2, §3, §4, §5

Chain of human orexin-2 receptor (O43614 whole entry): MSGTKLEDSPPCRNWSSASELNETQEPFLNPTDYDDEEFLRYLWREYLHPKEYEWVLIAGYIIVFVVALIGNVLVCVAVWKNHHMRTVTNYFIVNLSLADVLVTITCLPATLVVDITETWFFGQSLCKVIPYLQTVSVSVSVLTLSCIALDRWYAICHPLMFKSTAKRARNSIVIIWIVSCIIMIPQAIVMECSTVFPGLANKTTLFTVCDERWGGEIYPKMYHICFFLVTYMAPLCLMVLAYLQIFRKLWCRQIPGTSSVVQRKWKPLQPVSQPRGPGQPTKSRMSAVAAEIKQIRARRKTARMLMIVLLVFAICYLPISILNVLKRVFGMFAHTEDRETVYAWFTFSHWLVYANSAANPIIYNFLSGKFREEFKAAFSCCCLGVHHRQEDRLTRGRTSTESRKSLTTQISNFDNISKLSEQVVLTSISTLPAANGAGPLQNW
Chain of human orexin-1 receptor (O43613 whole entry): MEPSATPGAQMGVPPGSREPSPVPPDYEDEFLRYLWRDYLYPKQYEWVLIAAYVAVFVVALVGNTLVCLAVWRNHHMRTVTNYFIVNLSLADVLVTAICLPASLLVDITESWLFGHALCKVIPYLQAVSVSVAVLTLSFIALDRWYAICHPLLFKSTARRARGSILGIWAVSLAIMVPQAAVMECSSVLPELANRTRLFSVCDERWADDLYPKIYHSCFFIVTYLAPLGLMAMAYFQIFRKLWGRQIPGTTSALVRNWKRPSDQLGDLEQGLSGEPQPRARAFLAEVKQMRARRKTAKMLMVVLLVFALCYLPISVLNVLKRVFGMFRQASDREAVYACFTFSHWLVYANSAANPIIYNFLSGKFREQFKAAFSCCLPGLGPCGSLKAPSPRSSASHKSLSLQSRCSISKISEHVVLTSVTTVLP

Row | IC50 (human orexin-1 receptor) | IC50 (human orexin-2 receptor) | SMILES
1 | 54 nM | 858 nM | COc1ccccc1-c1nc(C(=O)N2CCC[C@@]2(C)c2nc3c(C)c(Cl)ccc3[nH]2)c(-c2ccc(F)cc2)s1 [Ex. 5.229]
2 | 3 nM | 2020 nM | Cc1nc(C(=O)N2CC[C@H](C)[C@H]2c2nc3cc(Cl)c(C)cc3[nH]2)c(-c2cc(F)cc(F)c2)s1 [Ex. 4.80]
3 | 15 nM | 2 nM | C=C1C[C@@H](c2nc3cc(OC)ccc3[nH]2)N(C(=O)c2cc(C)sc2-c2ccc(C)c(C)c2)C1 [Ex. 6.36]
4 | 5 nM | 1 nM | C=C1C[C@@H](c2nc3cccc(C)c3[nH]2)N(C(=O)c2nc(C)sc2-c2ccc(Cl)c(Cl)c2)C1 [Ex. 6.113]
5 | 42 nM | 891 nM | Cc1nc(C(=O)N2CC[C@H](C)[C@H]2c2nc3c(C(F)(F)F)cccc3[nH]2)c(-c2ccccc2Cl)s1 [Ex. 4.155]
6 | 872 nM | 458 nM | COc1cc2nc([C@]3(C)CCCN3C(=O)c3c(F)cccc3-n3nccn3)[nH]c2cc1OC [Ex. 5.66]
7 | 97 nM | 4 nM | CO[C@@H]1C[C@@H](c2nc3ccc(Cl)c(C)c3[nH]2)N(C(=O)c2cc(F)ccc2-n2nccn2)C1 [Ex. 3.18]
8 | 6 nM | 1080 nM | Cc1nc(C(=O)N2CC[C@H](C)[C@H]2c2nc3cccc(Cl)c3[nH]2)c(-c2cccc(Cl)c2)s1 [Ex. 4.22]
9 | 5 nM | 16 nM | CO[C@H]1CN(C(=O)c2nc(C)sc2-c2cccc(Cl)c2)C(C)(c2nc3c(C)c(Cl)ccc3[nH]2)C1 (stereo partly shown) [Ex. 3.27]
10 | 29 nM | 413 nM | Cc1ccc(-n2nccn2)c(C(=O)N2CCC[C@@]2(C)c2nc3cc(Cl)ccc3[nH]2)c1 [Ex. 5.11]
11 | 3 nM | 1060 nM | Cc1cc2[nH]c([C@@H]3[C@@H](C)CCN3C(=O)c3c(F)cccc3-c3ccccc3)nc2cc1Cl [Ex. 4.112]
12 | 337 nM | 69 nM | COc1ccc2[nH]c([C@@H]3CCCN3C(=O)c3nc(C)sc3-c3cccc(Cl)c3)nc2c1 [Ex. 1.9]
13 | 25 nM | 65 nM | Cc1cc(C(=O)N2CCC[C@@]2(C)c2nc3c(C)c(Cl)ccc3[nH]2)c(-c2ccccc2)cn1 [Ex. 5.264]
14 | 5 nM | 263 nM | Cc1c(Cl)ccc2[nH]c([C@]3(C)CCCN3C(=O)c3nc(-c4ccccc4F)sc3-c3ccc(F)cc3)nc12 [Ex. 5.233]
15 | 76 nM | 9 nM | CSc1cccc2nc([C@@H]3CCCN3C(=O)c3cc(Cl)ccc3-n3nccn3)[nH]c12 [Ex. 1.165]
16 | 2 nM | 21 nM | C[C@@]1(c2nc3cc(C(F)(F)F)c(Cl)cc3[nH]2)CCCN1C(=O)c1cc(Cl)ccc1-n1nccn1 [Ex. 5.139]
17 | 17 nM | 4 nM | C=C1C[C@@H](c2nc3ccc(Cl)c(C)c3[nH]2)N(C(=O)c2nc(C)ccc2-n2nccn2)C1 [Ex. 6.127]
18 | 1300 nM | 317 nM | Cc1nc(C(=O)N2C[C@@H](F)C[C@H]2c2nc3c(C)cccc3[nH]2)c(-c2ccccc2)s1 [Ex. 2.2]
19 | 2 nM | 568 nM | Cc1c(Cl)ccc2[nH]c([C@@H]3[C@@H](C)CCN3C(=O)c3cc(C#N)ccc3-c3ccccc3)nc12 [Ex. 4.166]
20 | 26 nM | 68 nM | Cc1c(Cl)ccc2[nH]c([C@]3(C)CCCN3C(=O)c3c(F)cccc3-c3ncccn3)nc12 [Ex. 5.222]
21 | 261 nM | 54 nM | C=C1C[C@@H](c2nc3cc(C(C)(C)C)ccc3[nH]2)N(C(=O)c2cc(C(F)(F)F)ccc2-n2nccn2)C1 [Ex. 6.168]
22 | 92 nM | 97 nM | Cc1cc2nc([C@]3(C)CCCN3C(=O)c3ccccc3-c3ccc(F)cc3)[nH]c2cc1C [Ex. 5.104]
23 | 2 nM | 2 nM | CO[C@H]1CN(C(=O)c2cc(C)ccc2-n2nccn2)[C@](C)(c2nc3c(C)c(Cl)ccc3[nH]2)C1 [Ex. 3.30]
24 | 365 nM | 1130 nM | COc1cc2nc([C@@H]3[C@@H](C)CCN3C(=O)c3c(F)cccc3-n3nccn3)[nH]c2cc1OC [Ex. 4.42]
25 | 167 nM | 7970 nM | COc1cc2nc([C@@H]3[C@@H](C)CCN3C(=O)c3ncsc3-c3cccc(Cl)c3)[nH]c2cc1OC [Ex. 4.55]

Row | IC50 (human orexin-1 receptor) | IC50 (human orexin-2 receptor) | SMILES
26 | 42 nM | 84 nM | Cc1ccc(-n2cccn2)c(C(=O)N2CCC[C@@]2(C)c2nc3cc(C)c(C)cc3[nH]2)c1 [Ex. 5.59]
27 | 30 nM | 353 nM | Cc1ccc(-n2nccn2)c(C(=O)N2CC[C@H](C)[C@H]2c2nc3cc(C(F)(F)F)ccc3[nH]2)c1 [Ex. 4.29]
28 | 97 nM | 58 nM | CSc1ccc2nc([C@@H]3CCCN3C(=O)c3nc(C)sc3-c3cccc(Cl)c3)[nH]c2c1 [Ex. 1.43]
29 | 486 nM | 28 nM | CSc1ccc2[nH]c([C@@H]3CCCN3C(=O)c3c(-n4nccn4)ccc(C)c3F)nc2c1 [Ex. 1.179]
30 | 339 nM | 1160 nM | Cc1ccc(-c2ccc(C(F)(F)F)cc2)c(C(=O)N2CCC[C@@]2(C)c2nc3cc(C(F)(F)F)ccc3[nH]2)c1 [Ex. 5.183]
31 | 394 nM | 107 nM | CSc1ccc2nc([C@@H]3CCCN3C(=O)c3cnc(C)nc3-c3ccc(F)cc3)[nH]c2c1 [Ex. 1.50]
32 | 36 nM | 6520 nM | Cc1ccc(-c2nc(C(=O)N3CCC[C@@]3(C)c3nc4c(C)c(Cl)ccc4[nH]3)c(-c3ccc(F)cc3)s2)cc1Cl [Ex. 5.258]
33 | 38 nM | 232 nM | Cc1ccc(C(=O)N2CCC[C@@]2(C)c2nc3cc(OC(F)(F)F)ccc3[nH]2)c(-c2ccccn2)c1 [Ex. 5.240]
34 | 13 nM | 329 nM | Cc1c(Cl)ccc2[nH]c([C@]3(C)CCCN3C(=O)c3nc(-c4cccc(Cl)c4)sc3-c3ccc(F)cc3)nc12 [Ex. 5.257]
35 | 142 nM | 33 nM | C=C1C[C@@H](c2nc3c(Br)cccc3[nH]2)N(C(=O)c2cc(C)ccc2-n2nccn2)C1 [Ex. 6.64]
36 | 14 nM | 249 nM | Cc1c(Cl)ccc2[nH]c([C@@H]3[C@@H](C)CCN3C(=O)c3cc(F)ccc3-c3ncccn3)nc12 [Ex. 4.175]
37 | 333 nM | 9 nM | C=C1C[C@@H](c2nc3cccc(C)c3[nH]2)N(C(=O)c2nc(C)ccc2-n2nccn2)C1 [Ex. 6.115]
38 | 24 nM | 51 nM | Cc1ccc(-c2ccc(F)cc2)c(C(=O)N2CCC[C@@]2(C)c2nc3cc(C(F)(F)F)c(Cl)cc3[nH]2)c1 [Ex. 5.152]
39 | 24 nM | 23 nM | Cc1cc2nc([C@]3(C)CCCN3C(=O)c3cc(Cl)ccc3-n3nccn3)[nH]c2cc1C [Ex. 5.53]
40 | 1180 nM | 149 nM | COc1ccc2nc([C@@H]3CCCN3C(=O)c3nc(C)sc3-c3cccc(F)c3)[nH]c2c1 [Ex. 1.21]
41 | 147 nM | 70 nM | Cc1nc(C(=O)N2CCCC2c2nc3c(C)cccc3[nH]2)c(-c2ccccc2)s1 (stereo not shown) [Ex. 1.123]
42 | 39 nM | 19 nM | Cc1ccc2[nH]c([C@]3(C)CCCN3C(=O)c3ccccc3-c3cccc(F)c3)nc2c1C [Ex. 5.116]
43 | 9 nM | 5 nM | C=C1C[C@@H](c2nc3cc(Cl)c(C(F)(F)F)cc3[nH]2)N(C(=O)c2cc(C)ccc2-n2nccn2)C1 [Ex. 6.67]
44 | 56 nM | 401 nM | Cc1ccc(C(=O)N2CCC[C@@]2(C)c2nc3cc(OC(F)(F)F)ccc3[nH]2)c(-c2ccccc2)c1 [Ex. 5.242]
45 | 1 nM | 387 nM | Cc1ccc(-c2sc(N(C)C)nc2C(=O)N2CC[C@H](C)[C@H]2c2nc3c(Cl)cccc3[nH]2)cc1C [Ex. 4.128]
46 | 9 nM | 294 nM | Cc1ccc(-n2nccn2)c(C(=O)N2CC[C@H](C)[C@H]2c2nc3c(C)cc(C)cc3[nH]2)c1 [Ex. 4.33]
47 | 347 nM | 139 nM | COc1ccc2nc([C@@H]3CCCN3C(=O)c3cnc(C)nc3-c3ccccc3)[nH]c2c1 [Ex. 1.32]
48 | 592 nM | 414 nM | COc1cc2nc([C@]3(C)CCCN3C(=O)c3nc(C)sc3-c3ccc(C(F)(F)F)cc3)[nH]c2cc1OC [Ex. 5.74]
49 | 4 nM | 1300 nM | Cc1nc(C(=O)N2CC[C@H](C)[C@H]2c2nc3c(C)cc(Cl)cc3[nH]2)c(-c2cc(F)cc(F)c2)s1 [Ex. 4.98]

Row | SMILES | IC50 (human orexin-1 receptor) | IC50 (human orexin-2 receptor)
50 | Cc1c(Cl)ccc2[nH]c([C@]3(C)CCCN3C(=O)c3cc(Cl)ccc3-n3nccn3)nc12 [Ex. 5.34] | 2 nM | 9 nM
